Experimental findings from patent publication US6653300B2, “Pyrazole compounds useful as protein kinase inhibitors” (Vertex Pharmaceuticals Incorporated, priority 2000, dated 2003) are described below.

SMILES strings stand for the structures. Read-outs that look alike come from different tables or passages of the source.

Series [1] addresses CDK-2/Cyclin A (Homo sapiens, UniProt P24941). The experiment in a line: CDK-2 inhibition assay (coupled enzyme assay). To be noted: 25 nM CDK-2/Cyclin A, 30° C. The series is classed as biochemical. On the procedure: Compounds were screened in the following manner for their ability to inhibit CDK-2 using a standard coupled enzyme assay (Fox et al (1998) Protein Sci 7, 2249).
To an assay stock buffer solution containing 0.1M HEPES 7.5, 10 mM MgCl2, 1 mM DTT, 25 mM NaCl, 2.5 mM phosphoenolpyruvate, […], 30 mg/ml pyruvate kinase, 10 mg/ml lactate dehydrogenase, 100 mM ATP, and 100 μM peptide ([…], American Peptide, Sunnyvale, Calif.) was added a DMSO solution of a compound of the present invention to a final concentration of 30 μM. The resulting mixture was incubated at 30° C. for 10 min.
The reaction was initiated by the addition of 10 μL of CDK-2/Cyclin A stock solution to give a final concentration of 25 nM in the assay. The rates of reaction were obtained by monitoring absorbance at 340 nm over a 5-minute read time at 30° C. using a BioRad Ultramark plate reader (Hercules, Calif.). The Ki values were determined from the rate data as a function of inhibitor concentration.

Series [2] concerns the target T1, GSK-3β (AA 1-420) (Homo sapiens, UniProt P49841).
T1 construct: GSK-3β (AA 1-420)
The experiment in a line: Ki determination for the inhibition of GSK-3 (coupled enzyme system). The series is classed as biochemical. The settings on record: 20 μM ATP, 20 nM GSK-3β, 30° C. In a few lines: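 GSK-3β (AA 1-420, 20 nM) was run in a pyruvate kinase/LDH-coupled NADH assay in 100 mM HEPES pH 7.5, 10 mM MgCl2, 25 mM NaCl, 1 mM DTT, 1.5% DMSO, with 300 μM phosphopeptide substrate. Compound (0.002–30 μM) was preincubated 10 min at 30° C, then 20 μM ATP was added.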

The target in series [3] is T2, Aurora-2 (Homo sapiens, UniProt O14965).
T2 sequence (O14965 1-403): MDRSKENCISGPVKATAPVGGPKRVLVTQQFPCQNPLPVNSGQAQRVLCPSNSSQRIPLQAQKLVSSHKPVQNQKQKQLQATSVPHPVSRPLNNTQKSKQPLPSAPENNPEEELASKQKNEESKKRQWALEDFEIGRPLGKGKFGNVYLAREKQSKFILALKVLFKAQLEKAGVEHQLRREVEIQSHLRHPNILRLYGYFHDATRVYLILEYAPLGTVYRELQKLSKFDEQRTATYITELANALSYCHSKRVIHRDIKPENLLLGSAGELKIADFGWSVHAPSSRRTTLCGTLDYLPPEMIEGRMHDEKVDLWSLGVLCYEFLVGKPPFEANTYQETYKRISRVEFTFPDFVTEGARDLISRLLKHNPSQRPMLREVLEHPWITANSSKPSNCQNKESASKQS
The experiment in a line: Ki determination for the inhibition of Aurora-2 (coupled enzyme assay). Format: biochemical. To be noted: 70 nM Aurora-2, 30° C. The method in brief:
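Ki came from reaction rates plotted against inhibitor concentration, with rates taken as A340 decrease over 5 min at 30° C. Enzyme (70 nM final) was added after 10 min compound preincubation; stock buffer held […], 800 μM LRRASLG, PK/LDH coupling, pH 7.5.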

Series [4] addresses AKT-3 (Homo sapiens, UniProt Q9Y243). Nature of the series: AKT inhibition assay (coupled enzyme assay). The series is classed as biochemical. To be noted: 45 nM AKT, 170 μM ATP, 30° C. The procedure: Compounds were screened for their ability to inhibit AKT using a standard coupled enzyme assay (Fox et al., Protein Sci., (1998) 7, 2249). Assays were carried out in a mixture of 100 mM HEPES 7.5, 10 mM MgCl2, 25 mM NaCl, 1 mM DTT and 1.5% DMSO. Final substrate concentrations in the assay were 170 μM ATP (Sigma Chemicals) and 200 μM peptide (RPRAATF, American Peptide, Sunnyvale, Calif.). Assays were carried out at 30° C. and 45 nM AKT. Final concentrations of the components of the coupled enzyme system were 2.5 mM phosphoenolpyruvate, 300 μM NADH, 30 μg/ML pyruvate kinase and 10 μg/ml lactate dehydrogenase.
An assay stock buffer solution was prepared containing all of the reagents listed above, with the exception of AKT, DTT, and the test compound of interest. 56 μl of the stock solution was placed in a 384 well plate followed by addition of 1 μl of 2 mM DMSO stock containing the test compound (final compound concentration 30 μM). The plate was preincubated for about 10 minutes at 30° C. and the reaction initiated by addition of 10 μl of enzyme (final concentration 45 nM) and 1 mM DTT. Rates of reaction were obtained using a BioRad Ultramark plate reader (Hercules, Calif.) over a 5 minute read time at 30° C.

Series [5] has as its target T3, human Src kinase (Homo sapiens, UniProt P12931).
T3 construct: full length recombinant human Src kinase (from Upstate Biotechnology, cat. no. 14-117); purchased Upstate Biotechnology 14-117; host or cells: baculo viral cells
Nature of the series: SRC inhibition assay (radioactivity-based or spectrophotometric assay). The series is classed as biochemical. To be noted: recombinant human Src kinase, assay A or B. The method in brief:
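Full-length recombinant human Src from baculovirus was used. In the radiometric format, enzyme was preincubated 10 min at 30 °C, the reaction was started with ^33P-ATP and run 20 min, then TCA-quenched and filter-counted. The alternative format monitored poly Glu-Tyr phosphorylation by NADH-coupled A340 rate. Ki came from competitive-inhibition fits.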

AKT-3, sequence (Q9Y243 whole entry, species assumed): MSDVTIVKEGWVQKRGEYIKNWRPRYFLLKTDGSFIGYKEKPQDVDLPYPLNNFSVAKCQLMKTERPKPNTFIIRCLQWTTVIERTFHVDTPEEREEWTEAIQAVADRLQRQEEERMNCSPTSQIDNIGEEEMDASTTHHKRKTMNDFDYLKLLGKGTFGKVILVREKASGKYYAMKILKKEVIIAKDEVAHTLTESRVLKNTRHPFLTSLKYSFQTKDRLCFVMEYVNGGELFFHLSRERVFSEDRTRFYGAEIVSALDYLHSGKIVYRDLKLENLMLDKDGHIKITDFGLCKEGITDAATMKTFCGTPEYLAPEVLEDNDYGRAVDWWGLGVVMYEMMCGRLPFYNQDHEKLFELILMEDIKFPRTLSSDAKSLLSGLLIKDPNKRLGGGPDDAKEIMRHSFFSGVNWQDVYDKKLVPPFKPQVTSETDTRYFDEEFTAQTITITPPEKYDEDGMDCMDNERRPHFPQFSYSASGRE
T3 sequence (P12931 whole entry): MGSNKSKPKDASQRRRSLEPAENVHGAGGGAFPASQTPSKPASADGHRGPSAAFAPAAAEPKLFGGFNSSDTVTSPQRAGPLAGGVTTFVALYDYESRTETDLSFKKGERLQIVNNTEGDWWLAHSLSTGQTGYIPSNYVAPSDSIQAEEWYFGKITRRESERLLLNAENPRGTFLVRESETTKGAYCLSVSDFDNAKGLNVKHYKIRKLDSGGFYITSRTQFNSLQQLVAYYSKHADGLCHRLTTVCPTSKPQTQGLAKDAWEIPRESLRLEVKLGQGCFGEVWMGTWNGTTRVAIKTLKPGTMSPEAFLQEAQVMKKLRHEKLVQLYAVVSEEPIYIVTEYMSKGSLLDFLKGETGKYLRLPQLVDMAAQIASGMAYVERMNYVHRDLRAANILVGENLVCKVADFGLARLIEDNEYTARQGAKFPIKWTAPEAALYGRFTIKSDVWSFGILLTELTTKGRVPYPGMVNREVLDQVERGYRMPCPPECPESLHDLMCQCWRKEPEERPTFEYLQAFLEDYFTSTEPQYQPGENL
T1 sequence (P49841 whole entry, the tested form may be a part): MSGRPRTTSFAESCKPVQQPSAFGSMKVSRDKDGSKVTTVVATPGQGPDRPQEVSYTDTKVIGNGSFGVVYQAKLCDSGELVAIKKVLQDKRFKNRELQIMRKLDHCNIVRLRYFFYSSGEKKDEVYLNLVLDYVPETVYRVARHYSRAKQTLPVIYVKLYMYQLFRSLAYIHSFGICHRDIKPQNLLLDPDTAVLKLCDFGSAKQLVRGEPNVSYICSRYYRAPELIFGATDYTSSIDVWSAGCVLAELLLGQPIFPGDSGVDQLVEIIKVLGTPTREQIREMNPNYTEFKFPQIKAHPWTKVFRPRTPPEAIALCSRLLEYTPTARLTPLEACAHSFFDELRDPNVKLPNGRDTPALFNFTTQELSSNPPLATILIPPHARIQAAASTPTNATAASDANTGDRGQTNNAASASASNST

Consider `Cc1cccc(Sc2nc(Nc3cc(C)[nH]n3)c3ccccc3n2)c1` [IIa-14, [2-(3-Methylphenylsulfanyl)-quinazolin-4-yl]-(5-methyl-2H-pyrazol-3-yl)-amine], for which the melting point was in the range of 249 to 250 °C. For the same compound, the Ki in series [1] is less than 1000 nM. This compound returned an inhibition constant Ki in series [2] of 100 to 1000 nM. In addition, the inhibition constant (Ki) in series [3] was less than 100 nM.
In the case of `CC(=O)Nc1ccc(Sc2nc(Nc3cc(C)[nH]n3)c3ccccc3n2)cc1` [IIa-38, [2-(4-Acetamidophenylsulfanyl)-quinazolin-4-yl]-(5-methyl-2H-pyrazol-3-yl)-amine], the Ki in series [1] is 1000 to 20000 nM; in series [2] it was 100 to 1000 nM; in series [3], less than 100 nM.
Consider `c1ccc2c(Nc3cc(C4CC4)[nH]n3)nc(Nc3ccc4cc[nH]c4c3)nc2c1` [IIc-22, (5-Cyclopropyl-2H-pyrazol-3-yl)-[2-(1H-indol-6-ylamino)-quinazolin-4-yl]-amine], for which the Ki in series [4] was 1000 to 20000 nM; in series [2] it was less than 100 nM; in series [5] (read-out: Ki value on SRC) it was less than 100 nM; in series [3], less than 100 nM.
`COc1cccc2c(Nc3cc(C)n[nH]3)nc(Sc3ccc(NC(C)=O)cc3)nc12` [IIa-44, [2-(4-Acetamidophenylsulfanyl)-8-methoxy-quinazolin-4-yl]-(5-methyl-2H-pyrazol-3-yl)-amine] showed a melting point of 247 to 249 °C. In addition, the Ki in series [1] lay within 1000 to 20000 nM. For the same compound, the inhibition constant (Ki) in series [5] (read-out: Ki value for SRC) lay in the range of 1000 to 6000 nM. This compound also displayed a Ki in series [3] of less than 100 nM.
`CCCS(=O)(=O)Nc1ccc(Sc2nc(Nc3cc(C)n[nH]3)c3ccccc3n2)cc1` [IIa-54, (5-Methyl-2H-pyrazol-3-yl)-{2-[4-(propane-1-sulfonylamino)-phenylsulfanyl]-quinazolin-4-yl}-amine] registered a melting point of 272 to 273 °C. In series [1], this compound returned a Ki of 1000 to 20000 nM. Besides, in series [2], the inhibitory constant (Ki) lay in the range of 100 to 1000 nM. Moreover, the Ki in series [5] (read-out: Ki value for SRC) lay within 1000 to 6000 nM. This compound yielded a Ki in series [3] of less than 100 nM.
On to `c1ccc2c(Nc3cc(C4CC4)[nH]n3)nc(Nc3ccc4[nH]ncc4c3)nc2c1` [IIc-37, (5-Cyclopropyl-2H-pyrazol-3-yl)-[2-(1H-indazol-5-ylamino)-quinazolin-4-yl]-amine], for which the inhibition constant (Ki) in series [4] is 1000 to 20000 nM; in series [2] it was less than 100 nM; in series [5] (read-out: Ki value on SRC), less than 100 nM; in series [3], less than 100 nM.
`CC(=O)Nc1ccc(Sc2nc(Nc3cc(C)[nH]n3)c3cccc(O)c3n2)cc1` [IIa-52, [2-(4-Acetamido-phenylsulfanyl)-8-hydroxyquinazolin-4-yl]-(5-methyl-2H-pyrazol-3-yl)-amine]: the melting point is 258 to 259 °C. The same compound came in with an inhibition constant Ki in series [1] of 1000 to 20000 nM. Besides, in series [2], the Ki was 1000 to 7000 nM. The Ki in series [3] was less than 100 nM.
Compound `c1ccc(Sc2nc(Nc3cc(C4CC4)[nH]n3)c3ccccc3n2)cc1` [IIa-21, (5-Cyclopropyl-2H-pyrazol-3-yl)-(2-phenylsulfanyl-quinazolin-4-yl)-amine] registered a melting point of 233 to 236 °C. Besides, in series [2], the inhibition constant (Ki) was less than 100 nM. Also, in series [5] (read-out: Ki value on SRC), the inhibitory constant (Ki) is less than 100 nM. In series [3], this compound came in with a Ki of less than 100 nM.
In turn, `Cc1cc(Nc2nc(NCc3cccnc3)nc3ccccc23)n[nH]1` [IIc-10, (5-Methyl-2H-pyrazol-3-yl)-[2-(pyridin-3-ylmethylamino)-quinazolin-4-yl]-amine] gave a melting point of 218 °C. Further, the inhibitory constant (Ki) in series [2] was less than 100 nM. In series [5] (read-out: Ki value on SRC), the inhibition constant (Ki) is less than 100 nM. Moreover, the Ki in series [3] is less than 100 nM.
As for `c1ccc2cc(Oc3nc(Nc4cc(C5CC5)[nH]n4)c4ccccc4n3)ccc2c1` [IIb-1, (5-Cyclopropyl-2H-pyrazol-3-yl)-[2-(naphthalen-2-yloxy)-quinazolin-4-yl]-amine], the melting point lay in the range of 327 to 328 °C. In addition, the Ki in series [2] was less than 100 nM. For the same compound, the inhibition constant (Ki) in series [5] (read-out: Ki value on SRC) was less than 100 nM. Moreover, the inhibition constant Ki in series [3] was less than 100 nM.
Turning to `Cc1ccc(Cl)c(Nc2nc(Nc3cc(C)[nH]n3)c3ccccc3n2)c1` [IIc-51, [2-(2-Chloro-5-methylphenylamino)-quinazolin-4-yl]-(5-methyl-2H-pyrazol-3-yl)-amine], the melting point lay in the range of 246 to 247 °C. In series [2], this compound showed a Ki of 100 to 1000 nM. The Ki in series [5] (read-out: Ki value on SRC) is less than 100 nM. In series [3], the Ki was less than 100 nM.
In turn, `CNCC(=O)Nc1ccc(Sc2nc(Nc3cc(C)[nH]n3)c3ccccc3n2)cc1` [IIa-77, {2-[4-(2-Methylamino-acetylamino)-phenylsulfanyl]-quinazolin-4-yl}-(5-methyl-2H-pyrazol-3-yl)-amine] returned a melting point of 242 to 244 °C. This compound also gave a Ki in series [2] of 1000 to 7000 nM. The inhibition constant Ki in series [5] (read-out: Ki value for SRC) is 1000 to 6000 nM. The inhibition constant Ki in series [3] is less than 100 nM.
As for `N#CCc1ccc(Nc2nc(Nc3cc(C4CC4)[nH]n3)c3ccccc3n2)cc1` [IIc-31, [2-(4-Cyanomethylphenylamino)-quinazolin-4-yl]-(5-cyclopropyl-2H-pyrazol-3-yl)-amine], the inhibition constant (Ki) is 1000 to 20000 nM in series [4], less than 100 nM in series [2], less than 100 nM in series [5] (read-out: Ki value on SRC) and less than 100 nM in series [3].
In the case of `Cc1cc(Nc2nc(Nc3ccc(NC(=O)C(C)C)cc3)nc3ccccc23)n[nH]1` [IIc-68, [2-(4-Isobutyrylamino-phenylamino)-quinazolin-4-yl]-(5-methyl-2H-pyrazol-3-yl)-amine], the melting point is 176 to 179 °C. The compound also gave a Ki in series [2] of 1000 to 7000 nM. For the same compound, the inhibition constant Ki in series [5] (read-out: Ki value for SRC) was in the range of 1000 to 6000 nM. The Ki in series [3] was less than 100 nM.
`Cc1cccc(Nc2nc(Nc3cc(C4CC4)[nH]n3)c3ccccc3n2)c1C` [IIc-42, (5-Cyclopropyl-2H-pyrazol-3-yl)-[2-(2,3-dimethylphenylamino)-quinazolin-4-yl]-amine] registered a melting point of 241 to 242 °C. The same compound yielded a Ki in series [4] of 1000 to 20000 nM. Further, the Ki in series [2] is less than 100 nM. Besides, the Ki in series [5] (read-out: Ki value on SRC) was less than 100 nM. In series [3], this compound came in with an inhibition constant Ki of less than 100 nM.
In turn, `COC(=O)c1cccc(Nc2nc(Nc3cc(C4CC4)[nH]n3)c3ccccc3n2)c1` [IIc-39, (5-Cyclopropyl-2H-pyrazol-3-yl)-[2-(3-methoxycarbonylphenylamino)-quinazolin-4-yl]-amine] registered a melting point of 228 to 231 °C. The compound also had an inhibition constant (Ki) in series [4] of 1000 to 20000 nM. Moreover, in series [2], the inhibition constant Ki was less than 100 nM. Moreover, the Ki in series [5] (read-out: Ki value on SRC) is less than 100 nM. The inhibition constant (Ki) in series [3] is less than 100 nM.

As a reminder, the Ki is the dissociation constant of the complex between target and ligand, obtained from inhibition or displacement. A word on the melting point: it is the temperature of the solid-liquid transition.
